Read-outs that look alike come from different tables or passages of the source.
Key:
tumor 2-HG = experiment: 2-HG in paired tumor biopsy samples; type: in vivo; conditions: Homo sapiens; 500 mg QD multiple doses, cycle 3 day 1 and cycle 7 day 1, paired biopsies, 21 patients, all tumor types; read-out: 2-HG inhibition in tumors
Procedure: Tumor biopsies were also collected for 2-HG assessment at screening, and at day 1 of cycle 3. Further biopsies were collected depending on the status of disease at cycle 7, day 1 or at any time that disease progression was suspected and/or at the end of treatment.
(§1) Plasma ivosidenib was measured using two validated liquid chromatography-tandem mass spectrometry (LC-MS/MS) methods. The lower limit of quantification (LLOQ) was 1.00 ng/mL (low-range assay) or 50.0 ng/mL (high-range assay). […] Plasma 2-HG concentrations were measured using a qualified LC-MS/MS method with an LLOQ of 30.0 ng/mL. Concentrations of 2-HG in tumor biopsy samples were quantified using qualified LC-MS/MS methods with an LLOQ of 7.5 μg/g for brain tumor homogenate, 100 ng/g for liver tumor homogenate (low-range assay), and 30 μg/g for liver tumor homogenate (high-range assay). Plasma 4β-OHC and cholesterol were measured using a validated LC-MS/MS method. The LLOQ was 5 ng/mL for 4β-OHC and 25 μg/mL for cholesterol in human plasma.

[1] = system: IDH1-mutant advanced solid tumors; conditions: Cmax,ss or AUCss vs best response, dose range tested
Text: A total of 6 adverse event categories, based on both laboratory abnormalities and reported adverse events, were included in the exposure-response analyses. […] The efficacy endpoint of interest was best response. The exposure-response analyses used modeled nominal steady-state Cmax (Cmax,ss) or AUC (AUCss) as predictors for safety and efficacy variables in the two subgroups of tumor types described earlier.

[2] = Ivosidenib plasma PK after multiple oral doses (dose escalation); type: in vivo, human; conditions: for Cmax / AUC(0-t) / AUC / Tmax: human, plasma, oral; for Cmax / AUC(0-t) / AUC: geometric mean; for AUC(0-t): read-out: AUC0-10hr; for AUC: read-out: AUC0-tau
Procedure: In the dose escalation portion, patients with 1) glioma and 2) non-glioma solid tumors were enrolled into sequential cohorts using a standard 3 + 3 design. […] At least 3 patients in each cohort also received a single dose 3 days prior to the start of multiple dosing (i.e., day −3).
(§2) These samples were optional for any further patients enrolled in these cohorts. Further blood samples were collected from all patients up to 10 h postdose on cycle 1, day 15 and cycle 2, day 1. A subset of samples was also used for evaluation of plasma 4β-hydroxycholesterol (4β-OHC) and 4β-OHC:cholesterol ratios. Blood samples for assessment of 2-HG only were also collected at screening.
as §1
(§3) PK parameters included area under the plasma concentration-time curve (AUC), maximum plasma concentration (Cmax), time to maximum plasma concentration (Tmax), terminal elimination half-life (t1/2), and apparent oral clearance at steady state (CLss/F). Accumulation ratio (Racc), based on Cmax and AUC, was also assessed during the dose escalation portion. PD (2-HG) parameters included baseline-effect value, area under the effect concentration-time curve (AUEC0-10h for the dose escalation portion, or AUEC0-8h for the dose escalation and expansion portions), percent change from baseline in AUEC (%BAUEC0-10h for the escalation portion, or %BAUEC0-8h for the dose escalation and expansion portions), average plasma concentration (Cavg), and percent inhibition for Cavg (%BCavg). For the dose escalation portion, the time-matched ratios of 4β-OHC to cholesterol were calculated.

[3] = Dose proportionality assessment of AUC and Cmax (power model); type: in vivo, human
Procedure: Dose proportionality after multiple dosing was tested using data from the QD dose regimens without the 100 mg BID dose group. To assess dose proportionality, the confidence interval (CI) for the slope was estimated, with each natural logarithm (ln)-transformed PK parameter as the dependent variable and the ln-transformed dose as the fixed effect. Analysis was performed using PK parameter estimates at day −3, cycle 1, day 15, and cycle 2, day 1. Dose proportionality was concluded if the 95% CI around the slope included 1 and if the slope was between 0.8 and 1.2 (inclusive).

[4] = set-up: method as in Agios data on file; conditions: ref Agios data on file; cited from earlier work
plasma 2-HG = experiment: Plasma 2-HG pharmacodynamics in patients with IDH1-mutant tumors; type: in vivo, human
Procedure: as §2
Additional predose samples were taken on cycle 1, day 8; cycle 1, day 15; cycle 3, day 1; and end of treatment.
as §1, §3

[5] = 100 mg, non-glioma solid tumors, 100 mg BID, cycle 2 day 1
[6] = 300 mg, glioma, 300 mg QD, cycle 2 day 1
[7] = 300 mg, non-glioma solid tumors, 300 mg QD, cycle 2 day 1
[8] = 400 mg, non-glioma solid tumors, 400 mg QD, cycle 2 day 1
[9] = 500 mg, glioma, 500 mg QD, cycle 2 day 1
[10] = 500 mg, non-glioma solid tumors, 500 mg QD, cycle 2 day 1
[11] = 600 mg, glioma, 600 mg QD, cycle 2 day 1
[12] = 800 mg, non-glioma solid tumors, 800 mg QD, cycle 2 day 1
[13] = 900 mg, glioma, 900 mg QD, cycle 2 day 1
[14] = 1200 mg, non-glioma solid tumors, 1,200 mg QD, cycle 2 day 1

## N#Cc1ccnc(N2C(=O)CC[C@H]2C(=O)N(c2cncc(F)c2)[C@H](C(=O)NC2CC(F)(F)C2)c2ccccc2Cl)c1 [ivosidenib]
Tumor 2-HG
  inhibition at 500 mg: ≤ 100%
[1]
  exposure-efficacy relationship: flat
[2]; day 15
  accumulation at steady state: approximately 1.5 fold
[2]; [5]
  Cmax: 3560 ng/mL
  AUC(0-t): 28600 ng·h/mL
  AUC: 33600 ng·h/mL
[2]; 100 mg, non-glioma solid tumors, 100 mg BID, cycle 2 day 1, median, read-out: Tmax
  Tmax: 2.5 h
[2]; [6]
  Cmax: 3290 ng/mL
  AUC(0-t): 23700 ng·h/mL
  AUC: 50800 ng·h/mL
[2]; 300 mg, glioma, 300 mg QD, cycle 2 day 1, median, read-out: Tmax
  Tmax: 2.54 h
[2]; [7]
  Cmax: 3160 ng/mL
  AUC(0-t): 23400 ng·h/mL
  AUC: 53200 ng·h/mL
[2]; 300 mg, non-glioma solid tumors, 300 mg QD, cycle 2 day 1, median, read-out: Tmax
  Tmax: 2.05 h
[2]; [8]
  Cmax: 6800 ng/mL
  AUC(0-t): 51600 ng·h/mL
[2]; 400 mg, non-glioma solid tumors, 400 mg QD, cycle 2 day 1, median, read-out: Tmax
  Tmax: 3.03 h
[2]; [9]
  Cmax: 2900 ng/mL
  AUC(0-t): 20500 ng·h/mL
  AUC: 44400 ng·h/mL
[2]; 500 mg, glioma, 500 mg QD, cycle 2 day 1, median, read-out: Tmax
  Tmax: 2 h
[2]; [10]
  Cmax: 4420 ng/mL
  AUC(0-t): 33900 ng·h/mL
  AUC: 72800 ng·h/mL
[2]; 500 mg, non-glioma solid tumors, 500 mg QD, cycle 2 day 1, median, read-out: Tmax
  Tmax: 2.96 h
[2]; [11]
  Cmax: 3800 ng/mL
  AUC(0-t): 29100 ng·h/mL
  AUC: 59800 ng·h/mL
[2]; 600 mg, glioma, 600 mg QD, cycle 2 day 1, median, read-out: Tmax
  Tmax: 2 h
[2]; [12]
  Cmax: 6050 ng/mL
  AUC(0-t): 44500 ng·h/mL
[2]; 800 mg, non-glioma solid tumors, 800 mg QD, cycle 2 day 1, median, read-out: Tmax
  Tmax: 2 h
[2]; [13]
  Cmax: 4100 ng/mL
  AUC(0-t): 31100 ng·h/mL
  AUC: 64500 ng·h/mL
[2]; 900 mg, glioma, 900 mg QD, cycle 2 day 1, median, read-out: Tmax
  Tmax: 2.52 h
[2]; [14]
  Cmax: 7580 ng/mL
  AUC(0-t): 57700 ng·h/mL
  AUC: 120000 ng·h/mL
[2]; 1200 mg, non-glioma solid tumors, 1,200 mg QD, cycle 2 day 1, median, read-out: Tmax
  Tmax: 2.92 h
[2]; after multiple doses, glioma and non-glioma solid tumors, read-out: median Tmax
  Tmax: 2 to 3 h
[2]; multiple dosing, cycle 1
  steady state reached by: ≤ 15 days
[2]; of cycle 1
  steady state for ivosidenib plasma exposure and plasma 2-HG inhibition reached within: ≤ 14 days
[3]; patients with glioma
  increase in ivosidenib exposure for a doubling of dose: ~40%
[3]; patients with non-glioma solid tumors
  increase in ivosidenib exposure for a doubling of dose: ~70%
[4]
  FDA Biopharmaceutical Classification System class: BCS Class II
  permeability (BCS): high permeability
  solubility (BCS): low solubility
Plasma 2-HG; after multiple doses, patients with cholangiocarcinoma or chondrosarcoma
  plasma 2-HG reduction: up to 98%
Plasma 2-HG; after one week of continuous dosing, cholangiocarcinoma and chondrosarcoma
  plasma 2-HG inhibition compared with baseline: up to 98%
Plasma 2-HG; cholangiocarcinoma, 500 mg multiple dose, cycle 1 day 15
  plasma 2-HG mean Cavg percent inhibition (BCavg%): 79%
Plasma 2-HG; cholangiocarcinoma, 500 mg multiple dose, cycle 2 day 1
  plasma 2-HG mean Cavg percent inhibition (BCavg%): 80%
Plasma 2-HG; cholangiocarcinoma, single dose, 500 mg
  plasma 2-HG mean Cavg percent inhibition (BCavg%): 46%
Plasma 2-HG; chondrosarcoma, 500 mg multiple dose, cycle 1 day 15
  plasma 2-HG mean Cavg percent inhibition (BCavg%): 54%
Plasma 2-HG; chondrosarcoma, 500 mg multiple dose, cycle 2 day 1
  plasma 2-HG mean Cavg percent inhibition (BCavg%): 59%
Plasma 2-HG; chondrosarcoma, single dose, 500 mg
  plasma 2-HG mean Cavg percent inhibition (BCavg%): 30%
